From PubChem BioAssay AID504867 (The Scripps Research Institute Molecular Screening Center, 2011)

Molecular target: Sphingosine 1-phosphate receptor 5 (Homo sapiens) (UniProt Q9H228)
Assay: activation of human S1P5 receptor – cell-based, fluorescence, set 2, counter-screen for S1P4 agonist project, late-stage follow-up (AID 504867)
Conditions: S1P5 agonist cell assay, fluorescence read-out

Sequence of Sphingosine 1-phosphate receptor 5 (Homo sapiens) (Q9H228 whole entry, looked up): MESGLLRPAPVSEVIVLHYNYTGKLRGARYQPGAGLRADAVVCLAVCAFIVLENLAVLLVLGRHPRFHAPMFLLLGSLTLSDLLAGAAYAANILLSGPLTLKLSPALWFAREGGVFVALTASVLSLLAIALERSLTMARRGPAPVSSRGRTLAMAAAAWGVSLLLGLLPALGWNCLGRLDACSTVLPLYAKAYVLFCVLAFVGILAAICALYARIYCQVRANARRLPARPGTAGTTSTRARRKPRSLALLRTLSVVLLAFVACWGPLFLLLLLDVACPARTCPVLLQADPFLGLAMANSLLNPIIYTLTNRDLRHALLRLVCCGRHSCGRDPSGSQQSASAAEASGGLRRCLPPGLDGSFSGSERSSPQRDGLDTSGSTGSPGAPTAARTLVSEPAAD

EC50: 2100 nM
Structure (SMILES): COCCN=C1S/C(=C\c2cc(C)n(-c3ccc(F)cc3F)c2C)C(=O)N1C
